In US12357601B2, “Composition for inhibiting growth of bacterium having menaquinone synthesis pathway through futalosine or futalosine derivative” (NOSTER INC., priority 2017, dated 2025):
In brackets after ≈: the same amount, converted by molar mass.

Assays:
Format in all cases: cell-based
[1] = test system: Helicobacter pylori SS1 strain, TN2GF4 strain, ATCC43579 strain, NCTC11637 strain, TY281 strain, TY1345 strain; experiment: Proliferation inhibitory effect (in vitro), static culture 3 days, colony count; settings: menaquinone (MK-4) 100 μg/mL added with fatty acid
Procedure: Helicobacter pylori SS1 strain, TN2GF4 strain, ATCC43579 strain, NCTC11637 strain, TY281 strain, TY1345 strain were each inoculated to a 6-well plate containing 3 mL of a liquid medium (Brucella broth added with 10% FCS), and fatty acid (200 μM or 1000 μM) and menaquinone (MK-4) 100 μg/mL were added. After static culture for 3 days at temperature 37° C., microaerobic conditions (5% 02, 10% 002, 85% N2), the culture medium was applied on a Helicobacter agar plate, cultured for 3 days and the resulting colonies were counted (FIG. 1-1 A: SS1 strain, FIG. 1-2 B: TN2GF4 strain, FIG. 1-3 C: ATCC43579 strain, FIG. 1-4 D: NCTC11637 strain, FIG. 1-5 E: TY281 strain, FIG. 1-6 F: TY1345 strain. Item C: control (no addition), Item 1: HYA addition, Item 2: HYA and menaquinone addition, Item 3: linoleic acid addition, Item 4: linoleic acid and menaquinone addition).

[2] = test system: Helicobacter pylori SS1 strain, TN2GF4 strain, TK1029 strain, RC-1 strain; experiment: Proliferation inhibitory effect (in vitro) of low concentration fatty acid, shaking culture 24 hr, colony count; settings: menaquinone (MK-4) 100 μg/mL added with fatty acid 20 μM
Procedure: Helicobacter pylori SS1 strain, TN2GF4 strain, TK1029 strain, RC-1 strain were each inoculated to a 6-well plate containing 2 mL of a liquid medium (BHI added with 5% FCS), and fatty acid (20 μM) and menaquinone (MK-4) 100 μg/mL were added. After shaking culture for 24 hr at temperature 37° C., microaerobic conditions (5% 02, 10% CO2, 85% N2), the culture medium was applied on a Helicobacter agar plate, cultured for 3 days and the resulting colonies were counted (FIG. 2-1 A: SS1 strain, FIG. 2-2 B: TN2GF4 strain, FIG. 2-3 C: TK1029 strain, FIG. 2-4 D: RC-1 strain. Item 1: control (menaquinone no addition), Item 2: control (menaquinone 100 μg/mL addition), Item 3: HYA 20 μM (menaquinone no addition), Item 4: HYA 20 μM (menaquinone 100 μg/mL addition), Item 5: linoleic acid 20 μM (menaquinone no addition), Item 6: linoleic acid 20 μM (menaquinone 100 μg/mL addition). *, P<0.0001 vs. Control (ordinary one-way ANOVA)).

[3] = test system: Helicobacter pylori TK1029 strain; experiment: Proliferation inhibitory effect (in vitro) by ED50 measurement, viable count; settings: BHI 2% FCS, viable count; for ED50 value, 15 hr later: 15 hr shaking culture; for ED50 value, 25 hr later: 25 hr shaking culture
Procedure: Helicobacter pylori TK1029 strain (clinical isolate) was cultured in Brucella broth containing 10% FCS and 1×10^6 CFU of bacteria were respectively added to 3 mL of Brain-Heart Infusion Broth (BHI) media (previously added with free fatty acid (stearic acid, oleic acid, linoleic acid, ricinoleic acid, HYA) at 0, 0.5, 5, 50, 500 μg/mL) containing 2% FCS in a 6-well plate. Shaking culture was performed under conditions of temperature 37° C., humidity 100%, microaerobic (5% 02, 10% CO2, 85% N2), the culture medium (0.1 mL) from each well was applied to NISSUI plate, Helicobacter agar medium 15 hr and 25 hr later, and the number of colonies formed after microaerobic culture for 3 days was counted.

[4] = test system: Campylobacter coli ATCC33559 strain; experiment: Proliferation inhibitory effect (in vitro) on Campylobacter coli, absorbance and colony count; settings: 100, 200, 400 μM, 24 hr; concentration dependent; strong compared to linoleic acid
[5] = test system: Campylobacter jejuni ATCC33560 strain; experiment: Proliferation inhibitory effect (in vitro) on Campylobacter jejuni, absorbance and colony count; settings: 100, 200, 400 μM, 24 hr; concentration dependent; strong compared to linoleic acid

## CC(C)=CCC/C(C)=C/CC/C(C)=C/CC/C(C)=C/CC1=C(C)C(=O)c2ccccc2C1=O [menaquinone (MK-4), menaquinone]
[1]
  effect of menaquinone addition on inhibition of proliferation by fatty acid: mitigated inhibition of proliferation
[2]
  effect of menaquinone addition on inhibition of proliferation by fatty acid: mitigated inhibition of proliferation

## CCCCCC[C@@H](O)C/C=C\CCCCCCCC(=O)O [ricinoleic acid]
[3]
  ED50 value, 15 hr later: 5 µg/mL (≈ 16.8 µM)
  ED50 value, 25 hr later: 0.5 µg/mL (≈ 1.68 µM)

## CCCCC/C=C\CC(O)CC/C=C\CCCCC(=O)O (stereo not drawn) [γHYA, 10-hydroxy-cis-6,cis-12-octadecadienoic acid]
[4]
  proliferation of Campylobacter coli ATCC33559 strain: inhibited proliferation
[5]
  proliferation of Campylobacter jejuni ATCC33560 strain: inhibited proliferation

## CCCCC/C=C\C/C=C\CCCCCCCC(=O)O [linoleic acid]
[3]
  ED50 value, 15 hr later: 50 µg/mL (≈ 178 µM)
  ED50 value, 25 hr later: 50 µg/mL (≈ 178 µM)

## CCCCCCCC/C=C\CCCCCCCC(=O)O [oleic acid]
[3]
  ED50 value, 15 hr later: 50 µg/mL (≈ 177 µM)
  ED50 value, 25 hr later: >50 µg/mL

## CC/C=C\C/C=C\CC(O)CCCCCCCCC(=O)O (stereo not drawn) [αHYA, 10-hydroxy-cis-12,cis-15-octadecadienoic acid]
[4]
  proliferation of Campylobacter coli ATCC33559 strain: inhibited proliferation
[5]
  proliferation of Campylobacter jejuni ATCC33560 strain: inhibited proliferation

## CCCCCCCCCCCCCCCCCC(=O)O [stearic acid]
[3]
  ED50 value, 15 hr later: 500 µg/mL (≈ 1760 µM)
  ED50 value, 25 hr later: >500 µg/mL
